# In PMC8252719, “Macrocyclic FKBP51 Ligands Define a Transient Binding Mode with Enhanced Selectivity” (Angewandte Chemie (International Ed. in English), 2021):
# Where two headings read alike, the source gives them in different places.
# Key:
# FKBP51FK1 [1] = target: T1, FKBP51FK1 (Homo sapiens, UniProt Q13451); experiment: competitive fluorescence polarization assay, FKBP51FK1; format: binding
# T1 sequence (Q13451 42-130 limits assumed): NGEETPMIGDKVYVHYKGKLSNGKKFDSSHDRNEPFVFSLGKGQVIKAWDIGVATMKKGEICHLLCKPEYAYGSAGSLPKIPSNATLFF
# Method: Table S1. Ki values were determined by a competitive fluoresc ence polarization assay.
# 4.1 Binding curves of 13a, c and d […]
# FKBP12.6 = FKBP12.6 (Homo sapiens, UniProt P68106); experiment: competitive fluorescence polarization assay, FKBP12.6; format: binding; conditions: for binding to FKBP12.6 (in words): fluorescence polarization assay; for Ki: competitive fluorescence polarization assay, >80 μM = highest measurable concentration before compound precipitation, ± = standard error from three independent measurements, read-out: FKBP12.6 K i
# FKBP12.6, sequence (P68106 whole entry): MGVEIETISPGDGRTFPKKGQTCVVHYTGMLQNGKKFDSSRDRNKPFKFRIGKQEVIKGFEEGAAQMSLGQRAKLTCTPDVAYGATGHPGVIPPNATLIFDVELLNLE
# FKBP12 = FKBP12 (Homo sapiens, UniProt P62942); experiment: competitive fluorescence polarization assay, FKBP12; format: binding; conditions: for binding to FKBP12 (in words): fluorescence polarization assay; for Ki: competitive fluorescence polarization assay, >80 μM = highest measurable concentration before compound precipitation, ± = standard error from three independent measurements, read-out: FKBP12 K i
# FKBP12, sequence (P62942 whole entry): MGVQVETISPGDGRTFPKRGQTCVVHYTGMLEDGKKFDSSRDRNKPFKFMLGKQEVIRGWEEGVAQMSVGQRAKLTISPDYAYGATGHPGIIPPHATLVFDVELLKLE
# FKBP52FK1 = target: T2, FKBP52FK1 (Homo sapiens, UniProt Q02790); experiment: competitive fluorescence polarization assay, FKBP52FK1; format: binding; conditions: Table 1 compounds tested up to 80 μM
# T2 sequence (Q02790 50-138 limits assumed): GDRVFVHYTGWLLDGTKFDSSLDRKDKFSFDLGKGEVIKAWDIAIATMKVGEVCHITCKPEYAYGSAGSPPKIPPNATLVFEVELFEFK
# FKBP51FK1 [2] = target: T1, FKBP51FK1; experiment: isothermal titration calorimetry (ITC); format: binding
# Method: 1. ITC of compounds 13a and 13d
# Figure S1. A) Binding of compound 13a to FKBP51FK1 determined by isothermal titration calorimetry at 25 °C. A 20 µM solution FKBP51FK1 formulated in 20 mM
# HEPES pH 8.0, 20 mM NaCl, 5% glycerol and 2% DMSO was placed in the sample cell of a PEAK-ITC instrument. The syringe was filled with a 200 µM solution of
# 13a formulated in the same buffer. After equilibration the compound was titrated into the sample cell by 12 injection s of 3 µl each. The obtained data was analyzed
# Binding of compound 13d to FKBP51FK1 determined by isothermal titration calorimetry at 25 °C. A 13 µM solution FKBP51FK1 formulated in 20 mM HEPES pH
# 8.0, 20 mM NaCl, 5% glycerol and 2% DMSO was placed in the sample cell of a PEAK -ITC instrument. The syringe was filled with a 10 0 µM solution of 13d
# formulated in the same buffer. After equilibration the compound was titrated into the sample cell by 12 injections of 3 µl each. The obtained data was analyzed using […]
# [3] = system: phorbol/ionomycin-induced IL8 secretion in Jurkat cells; experiment: immunostimulation/suppression assay in Jurkat cells (IL8 secretion); format: cell-based, human; conditions: IL8 ELISA; for effect on phorbol/ionomycin-induced IL8 secretion (compound on its own): 50 ng/ml PMA and 750 ng/ml Ionomycin, six hours
# Method: Importantly, unlike the pan‐selective FKBP ligand [4.3.1]16h ^[21]
# 5.1 Immunostimulation/suppression assays in JURKAT cells
# Figure S6A. Cellular analysis of compound FK[431]-16h in Jurkat cells
# 150 000 Jurkat cells were seeded in a 96 well plate in 180 µl and treated for 30 minutes with 13d or FK[431]-16h at the indicated […]
# Cells were pelleted and supernatant collected and stored at -80°C. The IL8 content in the s upernatant was determined using the human IL8/CXCL8 DuoSet Elisa kit (RndSystems) according to manufacturers instructions . The sample volume of supernatant was adapted to 150 µl. Optical density wa s assessed using a Tecan Spark.
# (§1) 5.2 IKKα inhibition in SIM-A9 cells
# (§2) Cell culture and treatments
# (§3) Murine microglia SIM-A9 cells were cultured at 37 °C, 5% CO2 in Dulbecco's Modified Eagle Medium (DMEM) high glucose with GlutaMAX (Thermo Fisher Scientific, 10566016), supplemented with 1 mM sodium pyruvate (Thermo Fisher Scientific, 11360-070), 10% fetal bovine serum (PAN Biotech, P30-8500), and 1% antibiotic-antimycotic (Thermo Fisher Scientific, 15240-062).
# (§4) For the preparation of whole-cell lysates, confluent SIM-A9 cell cultures treated with the indicated compounds for 16 h in the above mentioned growth medium, were washed two times with ice-cold DPBS (Thermo Fisher Scientific, 14190-144) and lysed in an appropriate volume of RIPA buffer (Thermo Fisher Scientific, 89901), freshly supplemented with 1x cOmplete™ EDTA-free protease inhibitor cocktail (Roche, 4693132001) and 1x PhosSTOP™ phosphatase inhibitor cocktail (Roche, 4906837001) for 20 min on ice.
# (§5) Subsequently, samples were centrifuged for 10 min at 4°C at 13000 rpm. The resulting supernatants were transferred to new 1.5 ml reaction tubes and prepared for separation with an SDS-PAGE system and analyzed by immunoblotting.
# (§6) SDS-PAGE and immunoblotting
# Separation of proteins was performed with the Criterion™ Vertical Electrophoresis Cell System (Bio-Rad, 1656001) on 4–20% Criterion™ TGX™ Precast Midi Protein Gels (Bio-Rad, 5671095). […]
# FKBP51FK1 [4] = target: T1, FKBP51FK1; conditions: values derived from literature; read-out: FKBP51FK1 K i; cited from earlier work
# Text: Table 1 Affinities of the macrocycles with amino acid containing linker determined by a competitive fluorescence polarization assay. | column: FKBP51FK1 / K i [μM]^[a]
# [5] = system: IKKα phosphorylation in SIM-A9 cells; experiment: IKKα inhibition in SIM-A9 cells (Western blot); format: cell-based, murine; conditions: for dose-dependence of inhibition of IKKα phosphorylation / inhibition of IKKα phosphorylation (in words): murine microglia SIM-A9 cells, 16 h treatment, Western blot; for inhibition of IKKα phosphorylation (in words): three (macrocycles) or six (SAFit) independent cellular assays
# Method: We next explored if the macrocyclic ligands could interfere with the cellular functions of FKBP51. We therefore treated SIM‐A9 cells, which were recently discovered as a SAFit‐sensitive cellular model for stress‐mediated secretory autophagy. ^[24] […] (Figure 2 F and S6C). […]
# as §1, §2, §3, §4, §5, §6
# Separation of proteins was performed with the Criterion™ Vertical Electrophoresis Cell System (Bio-Rad, 1656001) on 4–20% Criterion™ TGX™ Precast Midi Protein Gels (Bio-Rad, 5671095). Immunoblotting was performed with the Trans-Blot Turbo Transfer System (Bio-Rad, 1704150) on 0.2 µm PVDF Trans-Blot Turbo Transfer Membranes (Bio-Rad, 1704157). For immunodetection, membranes were placed in TBS, supplemented with 0.05% Tween (Sigma-Aldrich, P9416) and 5% non-fat milk (Carl Roth, T145.1) for 1 h at RT and then incubated with the primary antibody diluted in TBS-T overnight at 4°C. Following primary antibodies were used:
# Phospho-IKKα S176/phospho-IKKβ S177 (1:1000, Cell Signaling Technology, 2078), IKKα (1:1000, Cell Signaling Technology, 1682) and GAPDH (1:1000, Cell Signaling Techology, 5174).
# Then, immunoblots were washed and probed with horseradish peroxidase- conjugated secondary antibody (1:10000, Cell Signaling Technology, 7074) for 1 h at RT. Immunoreactive protein bands were visualized using Clarity Western ECL Substrate (Bio-Rad, 1705061) or Clarity Max Western ECL Substrate (Bio-Rad, 1705062). Determination of the band intensities was performed with […]
# [6] = meta B ring substituent R6, read-out: FKBP51 Ki (Table S1)
# [7] = 25 °C, 20 mM HEPES pH 8.0, 20 mM NaCl, 5% glycerol, 2% DMSO, one-site binding model, mean ± SD from 3 independent experiments, SD, read-out: Kd-value for FKBP51FK1 by ITC
# [8] = isothermal calorimetry, enthalpy-driven, read-out: K d for FKBP51 by ITC
# [9] = ± = standard error from three independent measurements [b] or error from two independent measurements [d], SEM, read-out: FKBP51FK1 K i
smiles,measurement,setting,value
COc1ccc(CC[C@H]2OC(=O)[C@@H]3CCCCN3C(=O)[C@@H](C3CCCCC3)NC(=O)C(C)(C)NC(=O)COc3cc(O)cc2c3)cc1OC [compound 25],Ki,FKBP51FK1 [1]; [6],0.37 µM
same,binding to FKBP12.6 (in words),FKBP12.6,no binding
same,binding to FKBP12 (in words),FKBP12,no binding
same,binding to FKBP52FK1 (in words),FKBP52FK1,no binding
COc1ccc(CC[C@H]2OC(=O)[C@@H]3CCCCN3C(=O)[C@@H](C3CCCCC3)NC(=O)CNC(=O)COc3cccc2c3)cc1OC [13 a],Kd,FKBP51FK1 [2]; [7],3.6 ± 0.9 µM
same,Kd,FKBP51FK1 [2]; [8],3.6 µM
same,Ki,FKBP51FK1 [1]; [9],2.3 ± 0.05 µM
same,Ki,FKBP12.6,> 80 µM
same,Ki,FKBP12,> 80 µM
"C=CC[C@@H]1/C=C(\C)C[C@H](C)C[C@H](OC)[C@H]2O[C@@](O)(C(=O)C(=O)N3CCCC[C@H]3C(=O)O[C@H](/C(C)=C/[C@@H]3CC[C@@H](O)[C@H](OC)C3)[C@H](C)[C@@H](O)CC1=O)[C@H](C)C[C@@H]2OC [FK506, reference compound]",effect on phorbol/ionomycin-induced IL8 secretion (compound on its own),[3],blocks
same,Ki,FKBP51FK1 [4],0.104 µM
"COc1ccc(CC[C@@H](OC(=O)[C@@H]2CCCCN2C(=O)[C@H](c2cc(OC)c(OC)c(OC)c2)C2CCCCC2)c2cccc(OCC(=O)O)c2)cc1OC [SAFit1, reference compound]",Ki,FKBP51FK1 [1]; [9],0.004 ± 0.001 µM
same,Ki,FKBP12.6; SEM,0.019 ± 0.002 µM
same,dose-dependence of inhibition of IKKα phosphorylation,[5],clear dose‐dependence
same,inhibition of IKKα phosphorylation (in words),[5],inhibited
same,Ki,FKBP12; SEM,0.163 ± 0.009 µM
COc1cc2cc(c1)[C@@H](CCc1ccc(OC)c(OC)c1)OC(=O)[C@@H]1CCCCN1C(=O)[C@@H](C1CCCCC1)NC(=O)C(C)(C)NC(=O)CO2 [compound 26],Ki,FKBP51FK1 [1]; [6],0.39 µM
same,binding to FKBP12.6 (in words),FKBP12.6,no binding
same,binding to FKBP12 (in words),FKBP12,no binding
same,binding to FKBP52FK1 (in words),FKBP52FK1,no binding
COc1ccc(CC[C@H]2OC(=O)[C@@H]3CCCCN3C(=O)[C@@H](C3CCCCC3)NC(=O)C3(CC3)NC(=O)COc3cccc2c3)cc1OC [13 d],Kd,FKBP51FK1 [2]; [7],0.6 ± 0.1 µM
same,Kd,FKBP51FK1 [2]; [8],0.6 µM
same,Ki,FKBP51FK1 [1]; [6],0.29 µM
same,Ki,FKBP51FK1 [1]; [9],0.4 ± 0.05 µM
same,effect on phorbol/ionomycin-induced IL8 secretion (compound on its own),[3],neither immunostimulatory nor immunosuppressive
same,effect on the immunosuppressive activity of FK506,"[3]; 30 minutes pretreatment, then 0.2 nM FK506, PMA/Ionomycin",did not block
same,Ki,FKBP12.6,> 80 µM
same,concentration at which apparent maximal inhibition of IKKα phosphorylation was already reached,"[5]; SIM-A9 cells, lowest tested concentration",≤ 1 µM
same,inhibition of IKKα phosphorylation (in words),[5],inhibited
same,Ki,FKBP12,> 80 µM
COc1ccc(CC[C@H]2OC(=O)[C@@H]3CCCCN3C(=O)[C@@H](C3CCCCC3)NC(=O)C3(CCC3)NC(=O)COc3cccc2c3)cc1OC [13 e],Ki,"FKBP51FK1 [1]; ± = standard error from three independent measurements [b] or error from two independent measurements [d], read-out: FKBP51FK1 K i",0.4 µM
same,Ki,FKBP12.6,> 80 µM
same,dose-dependence of inhibition of IKKα phosphorylation,[5],clear dose‐dependence
same,inhibition of IKKα phosphorylation (in words),[5],inhibited
same,Ki,FKBP12,> 80 µM
